Measurements as given in ChEMBL document CHEMBL3856204, “Chiral 6-aryl-furo[2,3-d]pyrimidin-4-amines as EGFR inhibitors” (Eur J Med Chem, 2016).

Tests used:
[1] = target: MAP kinase-activated protein kinase 2 (Homo sapiens) (UniProt P49137); assay: Inhibition of His tagged recombinant full length human MAPKAPK2 expressed in Escherichia coli at 500 nM by Z'-LYTE assay
[2] = target: Dual specificity mitogen-activated protein kinase kinase 1 (Homo sapiens) (UniProt Q02750); assay: Inhibition of His tagged recombinant full length human MEK1 expressed in baculovirus at 500 nM by Z'-LYTE assay
[3] = target: Tyrosine-protein kinase Yes (Homo sapiens) (UniProt P07947); assay: Inhibition of GST tagged recombinant full length human YES1 expressed in baculovirus at 500 nM by Z'-LYTE assay
[4] = target: Vascular endothelial growth factor receptor 2 (Homo sapiens) (UniProt P35968); assay: Inhibition of His tagged recombinant human KDR (789 to 1356 residues) expressed in baculovirus at 500 nM by Z'-LYTE assay
[5] = target: Tyrosine-protein kinase HCK (Homo sapiens) (UniProt P08631); assay: Inhibition of recombinant full length human N-terminal GST-tagged HCK expressed in baculovirus at 500 nM by Z'-LYTE assay
[6] = target: Protein kinase C theta type (Homo sapiens) (UniProt Q04759); assay: Inhibition of His tagged recombinant full length human PRKCQ expressed in baculovirus at 500 nM by Z'-LYTE assay
[7] = target: Platelet-derived growth factor receptor alpha (Homo sapiens) (UniProt P16234); assay: Inhibition of GST tagged recombinant human PGFRA cytoplasmic domain (550 to 1089 residues) expressed in baculovirus at 500 nM by Z'-LYTE assay
[8] = target: Aurora kinase B (Homo sapiens) (UniProt Q96GD4); assay: Inhibition of His tagged recombinant full length human Aurora B expressed in baculovirus at 500 nM by Z'-LYTE assay
[9] = target: T1, Serine/threonine-protein kinase Chk1 (Homo sapiens) (UniProt O14757); assay: Inhibition of His tagged recombinant full length human CHK1 expressed in baculovirus at 500 nM by Z'-LYTE assay
T1 sequence (whole entry): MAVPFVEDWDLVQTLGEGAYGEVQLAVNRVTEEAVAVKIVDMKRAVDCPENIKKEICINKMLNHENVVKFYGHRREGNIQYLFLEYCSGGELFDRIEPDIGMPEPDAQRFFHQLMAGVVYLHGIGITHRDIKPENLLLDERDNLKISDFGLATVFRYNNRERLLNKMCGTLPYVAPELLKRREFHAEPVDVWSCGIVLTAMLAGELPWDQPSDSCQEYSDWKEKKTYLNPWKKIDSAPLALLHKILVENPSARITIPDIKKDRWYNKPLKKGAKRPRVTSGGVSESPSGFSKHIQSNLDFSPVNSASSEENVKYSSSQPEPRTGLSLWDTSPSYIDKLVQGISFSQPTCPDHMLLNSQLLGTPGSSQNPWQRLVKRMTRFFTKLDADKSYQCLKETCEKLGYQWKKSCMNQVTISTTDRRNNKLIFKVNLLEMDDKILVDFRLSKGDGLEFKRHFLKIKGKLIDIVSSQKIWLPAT

[10] = target: Platelet-derived growth factor receptor beta (Homo sapiens) (UniProt P09619); assay: Inhibition of His tagged recombinant human PDGFRB cytoplasmic domain (558 to 1106 residues) expressed in baculovirus at 500 nM by Z'-LYTE assay
[11] = target: T2, Inhibitor of nuclear factor kappa-B kinase subunit beta (Homo sapiens) (UniProt O14920); assay: Inhibition of GST tagged recombinant full length human IKK beta expressed in baculovirus at 500 nM by Z'-LYTE assay
T2 sequence (whole entry): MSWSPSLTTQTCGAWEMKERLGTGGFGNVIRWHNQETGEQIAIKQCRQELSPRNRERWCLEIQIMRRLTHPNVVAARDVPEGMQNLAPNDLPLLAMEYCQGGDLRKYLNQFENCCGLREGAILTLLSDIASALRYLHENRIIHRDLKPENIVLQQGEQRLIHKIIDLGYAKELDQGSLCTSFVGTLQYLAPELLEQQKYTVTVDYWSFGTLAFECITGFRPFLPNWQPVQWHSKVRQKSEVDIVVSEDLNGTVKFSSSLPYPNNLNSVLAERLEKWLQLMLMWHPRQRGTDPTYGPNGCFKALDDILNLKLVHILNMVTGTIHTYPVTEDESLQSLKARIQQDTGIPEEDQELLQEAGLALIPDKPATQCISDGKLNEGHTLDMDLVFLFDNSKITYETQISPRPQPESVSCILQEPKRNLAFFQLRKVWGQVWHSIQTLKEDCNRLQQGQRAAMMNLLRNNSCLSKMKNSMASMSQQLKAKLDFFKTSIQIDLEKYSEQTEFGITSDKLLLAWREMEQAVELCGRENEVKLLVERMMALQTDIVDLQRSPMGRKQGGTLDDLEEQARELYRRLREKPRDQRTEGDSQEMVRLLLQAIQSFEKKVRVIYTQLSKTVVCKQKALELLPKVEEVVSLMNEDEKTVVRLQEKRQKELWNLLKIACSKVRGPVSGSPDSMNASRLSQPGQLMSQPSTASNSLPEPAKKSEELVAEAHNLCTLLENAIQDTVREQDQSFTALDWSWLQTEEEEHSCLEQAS

[12] = target: Focal adhesion kinase 1 (Homo sapiens) (UniProt Q05397); assay: Inhibition of GST tagged recombinant full length human PTK2 expressed in baculovirus at 500 nM by Z'-LYTE assay
[13] = target: Fibroblast growth factor receptor 1 (Homo sapiens) (UniProt P11362); assay: Inhibition of His tagged recombinant human FGFR1 cytoplasmic domain (308 to 731 residues) expressed in baculovirus at 500 nM by Z'-LYTE assay

Vascular endothelial growth factor receptor 2 (Homo sapiens), sequence (P35968 whole entry, the tested form may be a part): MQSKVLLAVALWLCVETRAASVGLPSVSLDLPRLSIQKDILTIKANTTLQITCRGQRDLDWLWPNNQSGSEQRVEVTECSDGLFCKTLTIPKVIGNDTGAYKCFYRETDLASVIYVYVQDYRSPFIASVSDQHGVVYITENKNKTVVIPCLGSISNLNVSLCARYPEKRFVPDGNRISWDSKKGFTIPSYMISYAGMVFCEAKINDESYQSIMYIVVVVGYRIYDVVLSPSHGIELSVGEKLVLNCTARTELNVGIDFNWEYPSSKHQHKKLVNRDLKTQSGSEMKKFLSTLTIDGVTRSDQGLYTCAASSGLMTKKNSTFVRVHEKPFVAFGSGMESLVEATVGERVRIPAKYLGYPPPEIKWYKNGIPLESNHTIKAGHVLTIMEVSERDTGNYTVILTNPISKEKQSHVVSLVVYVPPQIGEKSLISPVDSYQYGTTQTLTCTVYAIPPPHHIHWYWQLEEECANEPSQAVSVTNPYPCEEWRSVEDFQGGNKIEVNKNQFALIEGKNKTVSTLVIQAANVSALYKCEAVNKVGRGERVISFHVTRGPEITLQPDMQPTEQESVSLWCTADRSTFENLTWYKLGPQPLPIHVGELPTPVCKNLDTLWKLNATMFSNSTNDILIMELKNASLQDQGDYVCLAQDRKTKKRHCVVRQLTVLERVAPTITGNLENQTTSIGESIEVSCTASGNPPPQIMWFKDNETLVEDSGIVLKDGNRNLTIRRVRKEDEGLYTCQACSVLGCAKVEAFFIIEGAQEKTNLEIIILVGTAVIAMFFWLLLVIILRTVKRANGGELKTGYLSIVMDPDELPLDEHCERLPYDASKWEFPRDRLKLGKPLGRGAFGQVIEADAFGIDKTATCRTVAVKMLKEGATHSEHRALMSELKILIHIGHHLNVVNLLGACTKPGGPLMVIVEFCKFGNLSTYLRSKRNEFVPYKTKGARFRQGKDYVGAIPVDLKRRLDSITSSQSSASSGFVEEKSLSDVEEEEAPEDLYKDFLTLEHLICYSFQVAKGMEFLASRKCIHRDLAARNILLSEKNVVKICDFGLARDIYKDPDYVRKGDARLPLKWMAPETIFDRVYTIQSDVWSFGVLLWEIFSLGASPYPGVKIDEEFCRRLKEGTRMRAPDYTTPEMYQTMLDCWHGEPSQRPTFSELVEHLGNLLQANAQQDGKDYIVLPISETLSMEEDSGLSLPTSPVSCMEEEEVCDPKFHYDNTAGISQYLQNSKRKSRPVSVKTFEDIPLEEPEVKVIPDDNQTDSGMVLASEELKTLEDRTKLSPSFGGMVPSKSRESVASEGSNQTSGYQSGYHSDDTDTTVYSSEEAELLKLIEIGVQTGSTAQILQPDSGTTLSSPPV
Focal adhesion kinase 1 (Homo sapiens), sequence (Q05397 2-1052 limits assumed): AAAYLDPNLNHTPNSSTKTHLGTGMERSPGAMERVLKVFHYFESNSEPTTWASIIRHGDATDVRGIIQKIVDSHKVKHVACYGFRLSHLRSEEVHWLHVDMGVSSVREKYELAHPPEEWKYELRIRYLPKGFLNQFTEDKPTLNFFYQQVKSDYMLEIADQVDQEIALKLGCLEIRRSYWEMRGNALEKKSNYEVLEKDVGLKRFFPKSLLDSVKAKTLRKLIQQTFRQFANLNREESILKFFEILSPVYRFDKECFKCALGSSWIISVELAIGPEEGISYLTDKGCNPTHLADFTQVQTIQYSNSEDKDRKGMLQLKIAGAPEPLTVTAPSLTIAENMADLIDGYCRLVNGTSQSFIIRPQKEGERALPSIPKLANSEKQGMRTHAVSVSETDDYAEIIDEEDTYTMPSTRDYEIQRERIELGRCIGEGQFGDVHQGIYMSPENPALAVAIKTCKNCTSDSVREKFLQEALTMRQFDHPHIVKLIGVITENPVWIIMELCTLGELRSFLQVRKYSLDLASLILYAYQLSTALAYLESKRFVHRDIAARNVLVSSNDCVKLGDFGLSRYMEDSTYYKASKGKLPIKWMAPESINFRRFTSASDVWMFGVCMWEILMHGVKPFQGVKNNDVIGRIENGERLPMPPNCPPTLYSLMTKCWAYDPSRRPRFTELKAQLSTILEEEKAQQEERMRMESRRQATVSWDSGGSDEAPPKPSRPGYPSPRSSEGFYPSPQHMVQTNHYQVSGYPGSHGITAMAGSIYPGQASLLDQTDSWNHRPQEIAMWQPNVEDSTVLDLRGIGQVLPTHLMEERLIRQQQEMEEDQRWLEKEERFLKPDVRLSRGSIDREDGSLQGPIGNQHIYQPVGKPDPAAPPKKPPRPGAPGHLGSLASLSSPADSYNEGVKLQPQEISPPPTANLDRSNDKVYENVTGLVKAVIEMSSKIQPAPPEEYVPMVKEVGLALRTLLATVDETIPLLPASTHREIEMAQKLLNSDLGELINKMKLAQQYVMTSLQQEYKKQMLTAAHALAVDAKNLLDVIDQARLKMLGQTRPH
MAP kinase-activated protein kinase 2 (Homo sapiens), sequence (P49137 whole entry, looked up): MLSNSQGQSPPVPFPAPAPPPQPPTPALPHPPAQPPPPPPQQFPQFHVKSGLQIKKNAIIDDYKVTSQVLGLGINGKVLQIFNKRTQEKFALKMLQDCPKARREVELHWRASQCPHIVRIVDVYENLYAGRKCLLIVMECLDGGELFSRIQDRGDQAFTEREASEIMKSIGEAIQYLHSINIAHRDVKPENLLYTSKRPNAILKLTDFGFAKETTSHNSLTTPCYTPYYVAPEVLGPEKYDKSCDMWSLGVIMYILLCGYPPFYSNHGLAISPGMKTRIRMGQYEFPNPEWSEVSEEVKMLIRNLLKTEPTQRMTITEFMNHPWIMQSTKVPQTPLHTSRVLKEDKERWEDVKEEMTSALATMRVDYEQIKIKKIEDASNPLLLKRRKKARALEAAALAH
Dual specificity mitogen-activated protein kinase kinase 1 (Homo sapiens), sequence (Q02750 whole entry): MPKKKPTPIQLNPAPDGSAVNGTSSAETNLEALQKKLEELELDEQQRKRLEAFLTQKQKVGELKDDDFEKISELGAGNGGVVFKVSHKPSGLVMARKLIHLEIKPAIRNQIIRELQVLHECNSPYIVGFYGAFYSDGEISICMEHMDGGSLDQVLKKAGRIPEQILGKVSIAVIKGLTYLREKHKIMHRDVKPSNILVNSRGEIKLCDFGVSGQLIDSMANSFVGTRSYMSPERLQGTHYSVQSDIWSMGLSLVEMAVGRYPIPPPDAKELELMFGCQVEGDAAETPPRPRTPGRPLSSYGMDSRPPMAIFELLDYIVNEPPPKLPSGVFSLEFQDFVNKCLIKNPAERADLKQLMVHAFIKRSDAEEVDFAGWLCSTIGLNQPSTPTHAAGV
Platelet-derived growth factor receptor alpha (Homo sapiens), sequence (P16234 whole entry, the tested form may be a part): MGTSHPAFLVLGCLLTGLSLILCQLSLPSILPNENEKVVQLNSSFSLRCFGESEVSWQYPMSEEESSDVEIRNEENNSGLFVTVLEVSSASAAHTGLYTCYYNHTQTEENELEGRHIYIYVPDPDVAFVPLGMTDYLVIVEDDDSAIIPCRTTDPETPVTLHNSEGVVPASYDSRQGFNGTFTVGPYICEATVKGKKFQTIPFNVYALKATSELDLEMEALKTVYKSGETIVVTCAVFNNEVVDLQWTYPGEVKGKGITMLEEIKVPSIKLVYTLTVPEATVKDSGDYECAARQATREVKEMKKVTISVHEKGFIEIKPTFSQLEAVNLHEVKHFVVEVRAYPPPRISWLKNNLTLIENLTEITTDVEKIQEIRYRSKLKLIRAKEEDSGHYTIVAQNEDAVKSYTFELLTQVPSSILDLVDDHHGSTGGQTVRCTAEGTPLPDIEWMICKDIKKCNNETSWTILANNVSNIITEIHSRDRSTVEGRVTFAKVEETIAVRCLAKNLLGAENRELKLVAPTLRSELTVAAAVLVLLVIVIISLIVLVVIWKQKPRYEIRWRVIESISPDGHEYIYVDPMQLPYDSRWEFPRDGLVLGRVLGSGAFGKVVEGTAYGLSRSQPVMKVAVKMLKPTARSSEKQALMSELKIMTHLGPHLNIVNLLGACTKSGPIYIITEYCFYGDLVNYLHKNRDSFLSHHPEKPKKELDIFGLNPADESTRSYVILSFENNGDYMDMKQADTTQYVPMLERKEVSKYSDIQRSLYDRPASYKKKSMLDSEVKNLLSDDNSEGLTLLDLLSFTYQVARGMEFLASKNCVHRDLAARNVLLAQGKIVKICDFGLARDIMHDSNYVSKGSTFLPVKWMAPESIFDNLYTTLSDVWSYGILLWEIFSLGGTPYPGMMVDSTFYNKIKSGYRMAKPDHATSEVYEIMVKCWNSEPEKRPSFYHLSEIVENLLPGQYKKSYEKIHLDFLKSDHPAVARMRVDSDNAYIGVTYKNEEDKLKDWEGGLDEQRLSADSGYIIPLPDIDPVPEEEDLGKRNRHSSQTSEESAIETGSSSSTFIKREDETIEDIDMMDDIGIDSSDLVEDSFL
Tyrosine-protein kinase Yes (Homo sapiens), sequence (P07947 2-543 limits assumed): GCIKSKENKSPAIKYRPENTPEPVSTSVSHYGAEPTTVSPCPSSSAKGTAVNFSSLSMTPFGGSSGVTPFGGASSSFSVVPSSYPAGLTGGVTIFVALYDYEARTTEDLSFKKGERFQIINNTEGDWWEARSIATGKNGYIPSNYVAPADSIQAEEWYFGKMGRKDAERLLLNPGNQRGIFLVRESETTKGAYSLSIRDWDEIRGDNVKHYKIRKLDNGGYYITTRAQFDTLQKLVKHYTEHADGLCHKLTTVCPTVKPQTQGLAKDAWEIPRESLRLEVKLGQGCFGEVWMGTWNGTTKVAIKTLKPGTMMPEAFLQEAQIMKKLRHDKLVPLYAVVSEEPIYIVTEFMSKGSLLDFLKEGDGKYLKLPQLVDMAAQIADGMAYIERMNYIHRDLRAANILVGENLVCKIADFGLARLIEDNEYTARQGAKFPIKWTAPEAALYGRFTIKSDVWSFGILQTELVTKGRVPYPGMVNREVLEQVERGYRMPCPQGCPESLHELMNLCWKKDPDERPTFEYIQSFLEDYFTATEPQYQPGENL

C[C@@H](Nc1ncnc2oc(-c3ccc(NCCN4CCCCC4)cc3)cc12)c1ccccc1
inhibition [1]: 4% | inhibition [2]: 10% | inhibition [3]: 54% | inhibition [4]: 44% | inhibition [5]: 20% | inhibition [6]: 7% | inhibition [7]: 22% | inhibition [8]: 13 to 31% | inhibition [9]: -9% | inhibition [10]: 5% | inhibition [11]: 3% | inhibition [12]: 16% | inhibition [13]: 6%

C#Cc1cccc(Nc2ncnc3cc(OCCOC)c(OCCOC)cc23)c1
inhibition [1]: -1% | inhibition [2]: 7% | inhibition [3]: 29% | inhibition [4]: 70% | inhibition [5]: 18% | inhibition [6]: -4% | inhibition [7]: 5% | inhibition [8]: 20 to 44% | inhibition [9]: -7% | inhibition [10]: -5% | inhibition [11]: -5% | inhibition [12]: -3% | inhibition [13]: -4%

C[C@@H](Nc1ncnc2oc(-c3ccc(NCCN(C)C)cc3)cc12)c1ccccc1
inhibition [1]: 3% | inhibition [2]: 10% | inhibition [3]: 51% | inhibition [4]: 37% | inhibition [5]: 21% | inhibition [6]: 10% | inhibition [7]: 27% | inhibition [8]: 7 to 34% | inhibition [9]: -2% | inhibition [10]: 10% | inhibition [11]: 2% | inhibition [12]: 7% | inhibition [13]: 6%
